Reference: publication PMC6320956, “O-Aminoalkyl-O-Trimethyl-2,3-Dehydrosilybins: Synthesis and In Vitro Effects Towards Prostate Cancer Cells” (Molecules, 2018)
Where two headings read alike, the source gives them in different places.

How the values were obtained:
PC-3 cells [1] = experiment: F2N12S and SYTOX AADvanced double staining apoptosis assay; format: cell-based, human; settings: for early phase apoptosis in PC-3 cells: 5 µM; for early phase apoptosis in PC-3 cells / early apoptotic cells / late apoptotic/necrotic cells: range over 11, 37, 40; for concentration at which the apoptotic cell population reached its maximum: PC-3, 16 h
DU145 cells [2] = experiment: WST-1 cell proliferation assay, DU145; format: cell-based, human; settings: for IC50: Homo sapiens, DU-145, 72 h, WST-1, three days of exposure, mean ± SD, n = 3; for IC50 (Silibinin)/IC50(Derivative) DU145: fold potency relative to silibinin
Method: (§1) The in vitro antiproliferative activities of six 7-O-substituted and 26 3-O-substituted silybin derivatives were evaluated using the WST-1 cell proliferation assay, according to the procedure as described in the Experimental Section in both androgen-sensitive (LNCaP) and androgen-insensitive (PC-3 and DU145) human prostate cancer cell lines. Silibinin and docetaxel were used as a positive control for comparison in the parallel experiments and the IC50 values calculated from the dose-response curves are summarized in Table 1. […] A three-carbon linker in 11 and 29, as well as a five-carbon linker in 31, 37 and 40, are beneficial to the potency.
(§2) All cell lines were initially purchased from American Type Culture Collection (ATCC^TM) (Manassas, VA, USA). The PC-3 and LNCaP prostate cancer cell lines were routinely cultured in RPIM-1640 medium supplemented with 10% FBS and 1% penicillin/streptomycin. The DU145 prostate cancer cells were routinely cultured in Eagle’s Minimum Essential Medium (EMEM) supplemented with 10% FBS and 1% penicillin/streptomycin. Cultures were maintained in a high humidity environment supplemented with 5% carbon dioxide at a temperature of 37 °C.
(§3) PC-3, DU145, or LNCaP cells were plated in 96-well plates at a density of 3,200 per well in 200 µL of culture medium. The cells were then separately treated with silibinin, or synthesized silibinin derivatives, at five different doses for three days, while equal treatment volumes of DMSO (0.25%) were used as the vehicle control. The cells were cultured in a CO2 incubator at 37 °C for three days. A total of 10 µL of the premixed WST-1 cell proliferation reagent (Clontech) was added to each well. After mixing gently for one min on an orbital shaker, the cells were incubated for an additional 3 h at 37 °C. To ensure a homogeneous distribution of color, it is important to mix gently on an orbital shaker for one min. The absorbance of each well was measured using a microplate reader (Synergy HT, BioTek, Winooski, VT, USA) at a wavelength of 430 nm. […] For calculating the IC50 values, a linear proliferative inhibition was made based on at least five dosages for each compound.

PC-3 cells [3] = experiment: WST-1 cell proliferation assay, PC-3; format: cell-based, human; settings: for IC50: WST-1, three days of exposure, mean ± SD, n = 3; for IC50 (Silibinin)/IC50(Derivative) PC-3: fold potency relative to silibinin
Method: as §1, §2, §3

[4] = system: PWR-1E non-neoplastic human prostate epithelial cells; experiment: WST-1 cell proliferation assay, PWR-1E non-neoplastic cells; format: cell-based; settings: Homo sapiens, PWR-1E, 72 h; WST-1, three days of exposure, mean ± SD, n = 3
Method: (§4) Silibinin and five potent derivatives (11, 29, 31, 37, and 40) were selected for further evaluation against the MCF 10A non-neoplastic human mammary epithelial cell line and PWR-1E non-neoplastic human prostate epithelial cells.
as §3

PC-3 cells [5] = experiment: Cell cycle analysis by flow cytometry (propidium iodide); format: cell-based, human; settings: 20 µM, 16 h; controls 55.7% (11), 36.2% (29), 33.1% (31, 37, 40)
Method: Silibinin can arrest the rat (H-7 and I-8) and human prostate cancer cell (LNCaP) cycle at the G1 phase, and cause G1 and G2-M PC-3 prostate cancer cell cycle arrest.
PC-3 cells were plated in 24-well plates at a density of 200,000 per well in 400 µL of culture medium. […] […] Both attached and floating cells were collected in a centrifuge tube by centrifugation at an rcf value of 450 g for 5 min. After discarding the supernatant, the collected cells were re-suspended with 500 µL 80% cold ethanol to fix them for 30 min in 4 °C. The fixed cells could be stored at −20 °C for one week. After fixation, the ethanol was removed after centrifuging and the cells were washed with PBS. The cells were then re-suspend with 100 μL of […] ribonuclease and were cultured at 37 °C for 30 min to degrade all RNA. The cells were stained with 200 μL of 50 μg/mLpropidium iodide stock solution for 30 min at […], and then the fluorescence intensity of PI was detected in individual PC-3 cells using an Attune flow cytometer (Life Technologies, Carlsbad, CA, USA) within 0.5 to 1 h after staining.

[6] = system: MCF 10A non-neoplastic human mammary epithelial cell line; experiment: WST-1 cell proliferation assay, MCF 10A non-neoplastic cells; format: cell-based; settings: Homo sapiens, MCF-10A, 72 h; WST-1, three days of exposure, mean ± SD, n = 3
Method: as §4, §3

LNCaP cells [7] = experiment: WST-1 cell proliferation assay, LNCaP; format: cell-based, human; settings: for IC50: WST-1, three days of exposure, mean ± SD, n = 3; for IC50 (Silibinin)/IC50(Derivative) LNCaP: fold potency relative to silibinin
Method: as §1, §2, §3

[8] = system: prostate cancer cell lines (LNCaP, PC-3 and DU145); experiment: WST-1 cell proliferation assay, three prostate cancer cell lines together; format: cell-based, human; settings: range for the five optimal derivatives over PC-3, DU145, LNCaP; for IC50: Homo sapiens
Description: As part of our ongoing silybin project, this study aims to introduce a basic nitrogen-containing group to 7-OH of 3,5,20-O-trimethyl-2,3-dehydrosilybin or 3-OH of 5,7,20-O-trimethyl-2,3-dehydrosilybin via an appropriate linker for in vitro evaluation as potential anti-prostate cancer agents. The synthetic approaches to 7-O-substituted-3,5,20-O-trimethyl-2,3-dehydrosilybins through a five-step procedure and to 3-O-substituted-5,7,20-O-trimethyl-2,3- dehydrosilybins via a four-step transformation have been developed. Thirty-two nitrogen-containing derivatives of silybin have been achieved through these synthetic methods for the evaluation of their antiproliferative activities towards both androgen-sensitive (LNCaP) and androgen-insensitive prostate cancer cell lines (PC-3 and DU145) using the WST-1 cell proliferation assay. […] All these five optimal derivatives can arrest the PC-3 cell cycle in the G0/G1 phase and promote PC-3 cell apoptosis.
as §3
In summary, six 7-O-aminoalkyl-3,5-20-O-trimethyl-2,3-dehydrosilybins and 26 3-O-aminoalkyl-5,7,20-O-trimethyl-2,3-dehydrosilybins have been successfully synthesized through a five-step and four-step sequence, respectively. The synthetic methods can be used for the general synthesis of 7-O-substituted-3,5,20-O-trimethyl-2,3-dehydrosilybins and 3-O-substituted-5,7,20-O- trimethyl-2,3-dehydrosilybins. The antiproliferative activities of the 32 derivatives against three prostate cancer cell lines have been evaluated using the WST-1 cell proliferation assay. […] All these five optimal derivatives can cause PC-3 cell accumulation in a G0/G1 phase by increasing the cell population in this phase at 16 h. Derivatives 11, 37, and 40 show a stronger ability than derivatives 29 and 31 in activating PC-3 cell apoptosis by inducing appreciable levels of apoptotic cell death at a 5 µM concentration after 16 h of treatment.

PC-3 cells [9] = settings: WST-1, three days of exposure; cited from earlier work
LNCaP cells [10] = settings: WST-1, three days of exposure; cited from earlier work
DU145 cells [11] = settings: WST-1, three days of exposure; cited from earlier work

| SMILES | early phase apoptosis in PC-3 cells (PC-3 cells [1]; 16 h) | early apoptotic cells (PC-3 cells [1]; 10 µM, 16 h) | late apoptotic/necrotic cells (PC-3 cells [1]; 10 µM, 16 h) | early apoptotic cells (PC-3 cells [1]; 20 µM, 16 h) | late apoptotic/necrotic cells (PC-3 cells [1]; 20 µM, 16 h) | concentration at which the apoptotic cell population reached its maximum (PC-3 cells [1]) | IC50 (DU145 cells [2]) | IC50 (PC-3 cells [3]; Homo sapiens, PC-3, 72 h) | IC50 (PC-3 cells [3]) | IC50 [4] | PC-3 cell population in G0/G1 phase (PC-3 cells [5]) | IC50 [6] | IC50 (LNCaP cells [7]; Homo sapiens, LNCaP, 72 h) | IC50 (LNCaP cells [7]) | IC50 [8] | fold improvement in potency compared to silibinin [8] | IC50 (Silibinin)/IC50(Derivative) DU145 (DU145 cells [2]) | IC50 (Silibinin)/IC50(Derivative) PC-3 (PC-3 cells [3]) | IC50 (Silibinin)/IC50(Derivative) LNCaP (LNCaP cells [7]) | further results |
| --- | --- | --- | --- | --- | --- | --- | --- | --- | --- | --- | --- | --- | --- | --- | --- | --- | --- | --- | --- | --- |
| COc1cc(OC)c2c(=O)c(OCCCCCN3CCCCC3)c(-c3ccc4c(c3)OC(c3ccc(OC)c(OC)c3)C(CO)O4)oc2c1 (stereo not drawn) [Compound 37] | 26–59% | 56–76% | 6–40% | 54–75% | 16–44% | 10 µM | 2690 ± 30 nM | ≤ 3000 nM | 2710 ± 230 nM | < 5000 nM | 34.6% | < 5000 nM | ≤ 3000 nM | 1990 ± 230 nM | 1400 to 3060 nM | 17- to 52 fold |  |  |  |  |
| COc1cc(OC)c2c(=O)c(OCCCCCN3CCOCC3)c(-c3ccc4c(c3)OC(c3ccc(OC)c(OC)c3)C(CO)O4)oc2c1 (stereo not drawn) [Compound 40] | 26–59% | 56–76% | 6–40% | 54–75% | 16–44% | 30 µM | 3060 ± 130 nM | ≤ 3000 nM | 2720 ± 80 nM | < 5000 nM | 43.4% | < 5000 nM | ≤ 3000 nM | 2230 ± 180 nM | 1400 to 3060 nM | 17- to 52 fold |  |  |  |  |
| CCCCN(CCCC)CCCCCOc1c(-c2ccc3c(c2)OC(c2ccc(OC)c(OC)c2)C(CO)O3)oc2cc(OC)cc(OC)c2c1=O (stereo not drawn) [Compound 31] |  |  |  |  |  |  | 2850 ± 230 nM | ≤ 3000 nM | 2840 ± 100 nM | < 5000 nM | 35.9% | < 5000 nM | ≤ 3000 nM | 2510 ± 310 nM | 1400 to 3060 nM | 17- to 52 fold |  |  |  | maximum apoptotic cell population (PC-3 cells [1]; 50 µM, 16 h): 95%; apoptotic cell death (PC-3 cells [1]; up to a 10 µM concentration, 16 h): less than 10% |
| CCCOc1c(-c2ccc3c(c2)OC(c2ccc(O)c(OC)c2)C(CO)O3)oc2cc(O)cc(O)c2c1=O (stereo not drawn) [Compound 4, 3-O-propyl-2,3-dehydrosilybin, reference compound] |  |  |  |  |  |  |  |  |  |  |  |  |  |  |  |  | 8 | 42 | 21 | IC50 (PC-3 cells [9]): 1710 ± 450 nM; IC50 (LNCaP cells [10]): 2070 ± 180 nM; IC50 (DU145 cells [11]): 11000 ± 680 nM |
| COc1ccc(C2Oc3cc(-c4oc5cc(OCCCBr)cc(OC)c5c(=O)c4OC)ccc3OC2CO)cc1OC (stereo not drawn) [Compound 8, 7-O-(3′-bromo)propyl-3,5,20-O-trimethyl-2,3-dehydrosilybin] |  |  |  |  |  |  | 11500 ± 2380 nM | 26100 ± 3580 nM |  |  |  |  | 5710 ± 2130 nM |  |  |  | 8 | 3 | 8 | melting point: 115 to 116 °C |
